What was measured:
[1] = test system: Leptinotarsa decemlineata; assay: Insecticidal activity against first-instar larval stage of Leptinotarsa decemlineata infested potato leaves assessed as mortality at 20 ul after 24 hr relative to control; assay type: functional
[2] = test system: Leptinotarsa decemlineata; assay: Insecticidal activity against adult Leptinotarsa decemlineata infested potato leaves assessed as mortality at 10 ul after 12 hr relative to control; assay type: functional
[3] = test system: Leptinotarsa decemlineata; assay: Insecticidal activity against second-instar larval stage of Leptinotarsa decemlineata infested potato leaves assessed as mortality at 20 ul after 24 hr (reference value: 3.3 +/- 3.3%); assay type: functional
[4] = test system: Leptinotarsa decemlineata; assay: Insecticidal activity against first-instar larval stage of Leptinotarsa decemlineata infested potato leaves assessed as mortality at 20 ul after 96 hr relative to control; assay type: functional
[5] = test system: Leptinotarsa decemlineata; assay: Insecticidal activity against adult Leptinotarsa decemlineata infested potato leaves assessed as mortality at 20 ul after 48 hr relative to control; assay type: functional
[6] = test system: Leptinotarsa decemlineata; assay: Insecticidal activity against adult Leptinotarsa decemlineata infested potato leaves assessed as mortality at 10 ul after 24 hr relative to control; assay type: functional
[7] = test system: Leptinotarsa decemlineata; assay: Insecticidal activity against second-instar larval stage of Leptinotarsa decemlineata infested potato leaves assessed as mortality at 10 ul after 24 hr (reference value: 3.3 +/- 3.3%); assay type: functional
[8] = test system: Leptinotarsa decemlineata; assay: Insecticidal activity against first-instar larval stage of Leptinotarsa decemlineata infested potato leaves assessed as mortality at 10 ul after 12 hr relative to control; assay type: functional
[9] = test system: Leptinotarsa decemlineata; assay: Insecticidal activity against adult Leptinotarsa decemlineata infested potato leaves assessed as mortality at 10 ul after 48 hr relative to control; assay type: functional
[10] = test system: Leptinotarsa decemlineata; assay: Insecticidal activity against first-instar larval stage of Leptinotarsa decemlineata infested potato leaves assessed as mortality at 20 ul after 12 hr relative to control; assay type: functional
Sitophilus granarius = assay: Insecticidal activity against Sitophilus granarius (granary weevil) assessed as mortality; assay type: functional
[11] = test system: Leptinotarsa decemlineata; assay: Insecticidal activity against third-instar larval stage of Leptinotarsa decemlineata infested potato leaves assessed as mortality at 20 ul after 96 hr (reference value: 3.3 +/- 3.3%); assay type: functional
[12] = test system: Leptinotarsa decemlineata; assay: Insecticidal activity against third-instar larval stage of Leptinotarsa decemlineata infested potato leaves assessed as mortality at 10 ul after 12 hr relative to control; assay type: functional
[13] = test system: Leptinotarsa decemlineata; assay: Insecticidal activity against third-instar larval stage of Leptinotarsa decemlineata infested potato leaves assessed as mortality at 10 ul after 24 hr relative to control; assay type: functional
[14] = test system: Leptinotarsa decemlineata; assay: Insecticidal activity against first-instar larval stage of Leptinotarsa decemlineata infested potato leaves assessed as mortality at 10 ul after 48 hr relative to control; assay type: functional
[15] = test system: Leptinotarsa decemlineata; assay: Insecticidal activity against second-instar larval stage of Leptinotarsa decemlineata infested potato leaves assessed as mortality at 20 ul after 12 hr relative to control; assay type: functional
[16] = test system: Leptinotarsa decemlineata; assay: Insecticidal activity against second-instar larval stage of Leptinotarsa decemlineata infested potato leaves assessed as mortality at 20 ul after 48 hr (reference value: 3.3 +/- 3.3%); assay type: functional
[17] = test system: Leptinotarsa decemlineata; assay: Insecticidal activity against adult Leptinotarsa decemlineata infested potato leaves assessed as mortality at 20 ul after 12 hr relative to control; assay type: functional
[18] = test system: Leptinotarsa decemlineata; assay: Insecticidal activity against second-instar larval stage of Leptinotarsa decemlineata infested potato leaves assessed as mortality at 10 ul after 48 hr (reference value: 3.3 +/- 3.3%); assay type: functional
[19] = test system: Leptinotarsa decemlineata; assay: Insecticidal activity against first-instar larval stage of Leptinotarsa decemlineata infested potato leaves assessed as mortality at 10 ul after 96 hr relative to control; assay type: functional
[20] = test system: Leptinotarsa decemlineata; assay: Insecticidal activity against third-instar larval stage of Leptinotarsa decemlineata infested potato leaves assessed as mortality at 10 ul after 96 hr (reference value: 3.3 +/- 3.3%); assay type: functional
[21] = test system: Leptinotarsa decemlineata; assay: Insecticidal activity against second-instar larval stage of Leptinotarsa decemlineata infested potato leaves assessed as mortality at 10 ul after 12 hr relative to control; assay type: functional
[22] = test system: Leptinotarsa decemlineata; assay: Insecticidal activity against first-instar larval stage of Leptinotarsa decemlineata infested potato leaves assessed as mortality at 10 ul after 24 hr relative to control; assay type: functional
[23] = test system: Leptinotarsa decemlineata; assay: Insecticidal activity against adult Leptinotarsa decemlineata infested potato leaves assessed as mortality at 10 ul after 96 hr relative to control; assay type: functional
[24] = test system: Leptinotarsa decemlineata; assay: Insecticidal activity against adult Leptinotarsa decemlineata infested potato leaves assessed as mortality at 20 ul after 96 hr relative to control; assay type: functional
[25] = test system: Leptinotarsa decemlineata; assay: Insecticidal activity against second-instar larval stage of Leptinotarsa decemlineata infested potato leaves assessed as mortality at 10 ul after 96 hr (reference value: 3.3 +/- 3.3%); assay type: functional
[26] = test system: Leptinotarsa decemlineata; assay: Insecticidal activity against third-instar larval stage of Leptinotarsa decemlineata infested potato leaves assessed as mortality at 20 ul after 48 hr (reference value: 3.3 +/- 3.3%); assay type: functional
[27] = test system: Leptinotarsa decemlineata; assay: Insecticidal activity against third-instar larval stage of Leptinotarsa decemlineata infested potato leaves assessed as mortality at 20 ul after 24 hr relative to control; assay type: functional
[28] = test system: Leptinotarsa decemlineata; assay: Insecticidal activity against second-instar larval stage of Leptinotarsa decemlineata infested potato leaves assessed as mortality at 20 ul after 96 hr (reference value: 3.3 +/- 3.3%); assay type: functional
[29] = test system: Leptinotarsa decemlineata; assay: Insecticidal activity against third-instar larval stage of Leptinotarsa decemlineata infested potato leaves assessed as mortality at 10 ul after 48 hr (reference value: 3.3 +/- 3.3%); assay type: functional
[30] = test system: Leptinotarsa decemlineata; assay: Insecticidal activity against first-instar larval stage of Leptinotarsa decemlineata infested potato leaves assessed as mortality at 20 ul after 48 hr relative to control; assay type: functional
[31] = test system: Leptinotarsa decemlineata; assay: Insecticidal activity against third-instar larval stage of Leptinotarsa decemlineata infested potato leaves assessed as mortality at 20 ul after 12 hr relative to control; assay type: functional
[32] = test system: Leptinotarsa decemlineata; assay: Insecticidal activity against adult Leptinotarsa decemlineata infested potato leaves assessed as mortality at 20 ul after 24 hr relative to control; assay type: functional
[33] = test system: Leptinotarsa decemlineata; assay: Insecticidal activity against adult Leptinotarsa decemlineata infested potato leaves assessed as mortality at 20 mg after 12 hr relative to control; assay type: functional
[34] = test system: Leptinotarsa decemlineata; assay type: functional, Instar larval stage
[35] = test system: Leptinotarsa decemlineata; assay type: functional, Instar larval stage; remark: listed apart in the source
[36] = test system: Leptinotarsa decemlineata; assay: Insecticidal activity against adult Leptinotarsa decemlineata infested potato leaves assessed as mortality at 20 mg after 48 hr relative to control; assay type: functional
[37] = test system: Leptinotarsa decemlineata; assay type: functional, Instar larval stage; remark: listed apart in the source
[38] = test system: Leptinotarsa decemlineata; assay: Insecticidal activity against first-instar larval stage of Leptinotarsa decemlineata infested potato leaves assessed as mortality at 20 mg after 96 hr relative to control; assay type: functional
[39] = test system: Leptinotarsa decemlineata; assay: Insecticidal activity against first-instar larval stage of Leptinotarsa decemlineata infested potato leaves assessed as mortality at 20 mg after 12 hr relative to control; assay type: functional
[40] = test system: Leptinotarsa decemlineata; assay: Insecticidal activity against adult Leptinotarsa decemlineata infested potato leaves assessed as mortality at 10 mg after 48 hr relative to control; assay type: functional
[41] = test system: Leptinotarsa decemlineata; assay: Insecticidal activity against adult Leptinotarsa decemlineata infested potato leaves assessed as mortality at 10 mg after 12 hr relative to control; assay type: functional
[42] = test system: Leptinotarsa decemlineata; assay type: functional, Instar larval stage; remark: listed apart in the source
[43] = test system: Leptinotarsa decemlineata; assay: Insecticidal activity against third-instar larval stage of Leptinotarsa decemlineata infested potato leaves assessed as mortality at 10 mg after 24 hr relative to control; assay type: functional
[44] = test system: Leptinotarsa decemlineata; assay: Insecticidal activity against first-instar larval stage of Leptinotarsa decemlineata infested potato leaves assessed as mortality at 10 mg after 96 hr relative to control; assay type: functional
[45] = test system: Leptinotarsa decemlineata; assay: Insecticidal activity against third-instar larval stage of Leptinotarsa decemlineata infested potato leaves assessed as mortality at 20 mg after 12 hr relative to control; assay type: functional
[46] = test system: Leptinotarsa decemlineata; assay type: functional, Instar larval stage; remark: listed apart in the source
[47] = test system: Leptinotarsa decemlineata; assay: Insecticidal activity against second-instar larval stage of Leptinotarsa decemlineata infested potato leaves assessed as mortality at 10 mg after 12 hr relative to control; assay type: functional
[48] = test system: Leptinotarsa decemlineata; assay: Insecticidal activity against adult Leptinotarsa decemlineata infested potato leaves assessed as mortality at 20 mg after 24 hr relative to control; assay type: functional
[49] = test system: Leptinotarsa decemlineata; assay type: functional, Instar larval stage; remark: listed apart in the source
[50] = test system: Leptinotarsa decemlineata; assay: Insecticidal activity against adult Leptinotarsa decemlineata infested potato leaves assessed as mortality at 20 mg after 96 hr relative to control; assay type: functional
[51] = test system: Leptinotarsa decemlineata; assay type: functional, Instar larval stage; remark: listed apart in the source
[52] = test system: Leptinotarsa decemlineata; assay: Insecticidal activity against second-instar larval stage of Leptinotarsa decemlineata infested potato leaves assessed as mortality at 20 mg after 12 hr relative to control; assay type: functional
[53] = test system: Leptinotarsa decemlineata; assay: Insecticidal activity against first-instar larval stage of Leptinotarsa decemlineata infested potato leaves assessed as mortality at 20 mg after 48 hr relative to control; assay type: functional
[54] = test system: Leptinotarsa decemlineata; assay: Insecticidal activity against third-instar larval stage of Leptinotarsa decemlineata infested potato leaves assessed as mortality at 20 mg after 24 hr relative to control; assay type: functional
[55] = test system: Leptinotarsa decemlineata; assay type: functional, Instar larval stage; remark: listed apart in the source
[56] = test system: Leptinotarsa decemlineata; assay: Insecticidal activity against adult Leptinotarsa decemlineata infested potato leaves assessed as mortality at 10 mg after 96 hr relative to control; assay type: functional
[57] = test system: Leptinotarsa decemlineata; assay: Insecticidal activity against first-instar larval stage of Leptinotarsa decemlineata infested potato leaves assessed as mortality at 20 mg after 24 hr relative to control; assay type: functional
[58] = test system: Leptinotarsa decemlineata; assay type: functional, Instar larval stage; remark: listed apart in the source
[59] = test system: Leptinotarsa decemlineata; assay: Insecticidal activity against first-instar larval stage of Leptinotarsa decemlineata infested potato leaves assessed as mortality at 10 mg after 12 hr relative to control; assay type: functional
[60] = test system: Leptinotarsa decemlineata; assay: Insecticidal activity against first-instar larval stage of Leptinotarsa decemlineata infested potato leaves assessed as mortality at 10 mg after 48 hr relative to control; assay type: functional
[61] = test system: Leptinotarsa decemlineata; assay: Insecticidal activity against adult Leptinotarsa decemlineata infested potato leaves assessed as mortality at 10 mg after 24 hr relative to control; assay type: functional
[62] = test system: Leptinotarsa decemlineata; assay: Insecticidal activity against first-instar larval stage of Leptinotarsa decemlineata infested potato leaves assessed as mortality at 10 mg after 24 hr relative to control; assay type: functional
[63] = test system: Leptinotarsa decemlineata; assay type: functional, Instar larval stage; remark: listed apart in the source
[64] = test system: Leptinotarsa decemlineata; assay: Insecticidal activity against third-instar larval stage of Leptinotarsa decemlineata infested potato leaves assessed as mortality at 10 mg after 12 hr relative to control; assay type: functional

## CC12CCC(CC1)C(C)(C)O2 [EUCALYPTOL]
[1]
  mortality: 100%
[2]
  mortality: 100%
[3]
  mortality: 100%
[4]
  mortality: 100%
[5]
  mortality: 100%
[6]
  mortality: 100%
[7]
  mortality: 100%
[8]
  mortality: 26.7%
[9]
  mortality: 100%
[10]
  mortality: 46.7%
Sitophilus granarius
  mortality: 90%
[11]
  mortality: 86.7%
[12]
  mortality: 40%
[13]
  mortality: 50%
[14]
  mortality: 83.3%
[15]
  mortality: 83.3%
[16]
  mortality: 100%
[17]
  mortality: 83.3%
[18]
  mortality: 100%
[19]
  mortality: 100%
[20]
  mortality: 76.7%
[21]
  mortality: 43.3%
[22]
  mortality: 66.7%
[23]
  mortality: 100%
[24]
  mortality: 100%
[25]
  mortality: 100%
[26]
  mortality: 80%
[27]
  mortality: 73.3%
[28]
  mortality: 100%
[29]
  mortality: 63.3%
[30]
  mortality: 100%
[31]
  mortality: 56.7%
[32]
  mortality: 100%

## CC(C)[C@H]1CC[C@@H](C)C[C@@H]1O [ISOMENTHOL]
[33]
  mortality: 6.7%
[34]
  mortality: 0%
[35]
  mortality: 0%
[36]
  mortality: 20%
[37]
  mortality: 0%
[38]
  mortality: 0%
[39]
  mortality: 0%
[40]
  mortality: 30%
[41]
  mortality: 0%
[42]
  mortality: 3.3%
[43]
  mortality: 0%
[44]
  mortality: 10%
[45]
  mortality: 0%
[46]
  mortality: 0%
[47]
  mortality: 0%
[48]
  mortality: 6.7%
[49]
  mortality: 6.7%
[50]
  mortality: 26.7%
[51]
  mortality: 0%
[52]
  mortality: 0%
[53]
  mortality: 0%
[54]
  mortality: 0%
[55]
  mortality: 0%
[56]
  mortality: 33.3%
[57]
  mortality: 0%
[58]
  mortality: 0%
[59]
  mortality: 3.3%
[60]
  mortality: 6.7%
[61]
  mortality: 20%
[62]
  mortality: 3.3%
[63]
  mortality: 0%
[64]
  mortality: 0%

From ChEMBL document CHEMBL3046407, “Toxicity of monoterpenes against larvae and adults of Colorado potato beetle, Leptinotarsa decemlineata Say (Coleoptera: Chrysomelidae)” (2007)
